Measured values: patent publication US5447926A, “Quinolone carboxylic acid derivatives” (SS Pharmaceutical Co., Ltd., priority 1990, dated 1995)
Converted amounts (≈) assume the structure as drawn.

Columns and labels:
[1] = test system: Pseudomonas aeruginosa IFO 12582; details: IFO12582, 24 h
Serratia marcescens NHL = details: 24 h
Sarcina lutea ATCC 9341 = details: Micrococcus luteus, ATCC9341, 24 h
[2] = test system: M.R. Staphylococcus aureus 420; details: 24 h
[3] = test system: Strepto occus faecalis IFO 12964; details: 24 h
Shigella flexneri 2b = type: cell-based; details: 24 h
Escherichia coli H-12 = details: H12, 24 h
Salmonella typhi TD = type: cell-based; details: Salmonella enterica, 24 h
Proteus vulgaris OXK = details: 24 h
[4] = test system: Bacillus subtilis ATCC 6633; details: ATCC6633, 24 h
[5] = test system: Klebsiella pneumonias ATCC 10031; details: ATCC10031, 24 h
[6] = test system: Pseudomonas aeruginosa P2; details: P2, 24 h
[7] = test system: Staphylococcus aureus Smith; details: 24 h
[8] = test system: M.R. Staphylococcus aureus 421; details: 24 h
[9] = test system: Staphylococcus aureus Terajima; details: 24 h
[10] = test system: Micrococcus lysodeikticus IFO 3333; details: Micrococcus luteus, IFO3333, 24 h
[11] = test system: M.R. Staphylococcus aureus 415; details: 24 h
[12] = test system: Staphylococcus aureus FDA 209P; details: FDA209P, 24 h
Proteus rettgeri = details: Providencia rettgeri, 24 h
[13] = test system: M.R. Staphylococcus aureus 419; details: 24 h
[14] = test system: Klebsiella pneumonias IFO 13541; type: cell-based; details: IFO13541, 24 h, Gram-negative, Mueller Hinton Medium, 10^6 /ml, 37° C.
Escherichia coli 0-1 = details: Escherichia coli, 01, 24 h
[15] = test system: M.R. Staphylococcus aureus 395; details: 24 h
[16] = test system: Pseudomonas aeruginosa IFO 13736; details: IFO13736, 24 h
[17] = test system: Staphylococcus epidermidis ATCC 12228; details: ATCC12228, 24 h

Row | Compound | MIC [1] [µg/mL] | MIC (Serratia marcescens NHL) [µg/mL] | MIC (Sarcina lutea ATCC 9341) [µg/mL] | MIC [2] [µg/mL] | MIC [3] [µg/mL] | MIC (Shigella flexneri 2b) [µg/mL] | MIC (Escherichia coli H-12) [µg/mL] | MIC (Salmonella typhi TD) [µg/mL] | MIC (Proteus vulgaris OXK) [µg/mL] | MIC [4] [µg/mL] | MIC [5] [µg/mL] | MIC [6] [µg/mL] | MIC [7] [µg/mL] | MIC [8] [µg/mL] | MIC [9] [µg/mL] | MIC [10] [µg/mL] | MIC [11] [µg/mL] | MIC [12] [µg/mL] | MIC (Proteus rettgeri) [µg/mL] | MIC [13] [µg/mL] | also measured
1 | N[C@@H]1CCCCN(c2c(F)cc3c(=O)c(C(=O)O)cn(C4CC4)c3c2Cl)C1 [Compound 15] | 0.78 (≈ 1.98 µM) | 0.195 (≈ 0.495 µM) | 0.098 (≈ 0.249 µM) | 0.049 (≈ 0.124 µM) | 0.195 (≈ 0.495 µM) | 0.006 (≈ 0.0152 µM) | 0.098 (≈ 0.249 µM) | 0.049 (≈ 0.124 µM) | 0.049 (≈ 0.124 µM) | 0.024 (≈ 0.0609 µM) | 0.012 (≈ 0.0305 µM) | 1.56 (≈ 3.96 µM) | 0.024 (≈ 0.0609 µM) | 0.049 (≈ 0.124 µM) | 0.195 (≈ 0.495 µM) | 0.195 (≈ 0.495 µM) | 0.024 (≈ 0.0609 µM) | 0.012 (≈ 0.0305 µM) | 0.195 (≈ 0.495 µM) | 0.024 (≈ 0.0609 µM) | MIC [14]: 0.049 µg/mL (≈ 0.124 µM); MIC (Escherichia coli 0-1): 0.098 µg/mL (≈ 0.249 µM); MIC [15]: 0.049 µg/mL (≈ 0.124 µM); MIC [16]: 1.56 µg/mL (≈ 3.96 µM); MIC [17]: 0.049 µg/mL (≈ 0.124 µM)
2 | O=C1CCN(c2c(F)cc3c(=O)c(C(=O)O)cn(C4CC4)c3c2Cl)CCN1 [Compound 2, 8-Chloro-1-cyclopropyl-6-fluoro-7-(2,3,4,5,6,7-hexahydro-1H-1,4-diazepin-5-one-1-yl)-4-oxoquinoline-3-carboxylic acid] | 6.25 (≈ 15.9 µM) | 0.78 (≈ 1.98 µM) | 0.195 (≈ 0.495 µM) | 0.024 (≈ 0.0609 µM) | 0.195 (≈ 0.495 µM) | 0.003 (≈ 0.00762 µM) | 0.39 (≈ 0.99 µM) | 0.098 (≈ 0.249 µM) | 0.024 (≈ 0.0609 µM) | 0.024 (≈ 0.0609 µM) | 0.012 (≈ 0.0305 µM) | 12.5 (≈ 31.7 µM) | 0.012 (≈ 0.0305 µM) | 0.024 (≈ 0.0609 µM) | 0.098 (≈ 0.249 µM) | 0.049 (≈ 0.124 µM) | 0.024 (≈ 0.0609 µM) | 0.012 (≈ 0.0305 µM) | 0.78 (≈ 1.98 µM) | 0.024 (≈ 0.0609 µM) | MIC [14]: 0.098 µg/mL (≈ 0.249 µM); MIC (Escherichia coli 0-1): 0.195 µg/mL (≈ 0.495 µM); MIC [15]: 0.049 µg/mL (≈ 0.124 µM); MIC [16]: 6.25 µg/mL (≈ 15.9 µM); MIC [17]: 0.049 µg/mL (≈ 0.124 µM)
3 | CC1COc2c(N3CCN(C)CC3)c(F)cc3c(=O)c(C(=O)O)cn1c23 (stereo not drawn) [Ofloxacin, reference compound] | 3.12 (≈ 8.63 µM) | 0.049 (≈ 0.136 µM) | 3.12 (≈ 8.63 µM) | 0.39 (≈ 1.08 µM) | 1.56 (≈ 4.32 µM) | 0.012 (≈ 0.0332 µM) | 0.098 (≈ 0.271 µM) | 0.024 (≈ 0.0664 µM) | 0.049 (≈ 0.136 µM) | 0.098 (≈ 0.271 µM) | 0.024 (≈ 0.0664 µM) | 0.78 (≈ 2.16 µM) | 0.39 (≈ 1.08 µM) | 0.39 (≈ 1.08 µM) | 0.78 (≈ 2.16 µM) | 1.56 (≈ 4.32 µM) | 0.39 (≈ 1.08 µM) | 0.195 (≈ 0.54 µM) | 0.098 (≈ 0.271 µM) | 0.39 (≈ 1.08 µM) | MIC [14]: 0.024 µg/mL (≈ 0.0664 µM); MIC (Escherichia coli 0-1): 0.098 µg/mL (≈ 0.271 µM); MIC [15]: 0.39 µg/mL (≈ 1.08 µM); MIC [16]: 1.56 µg/mL (≈ 4.32 µM); MIC [17]: 0.78 µg/mL (≈ 2.16 µM)
